Results from US20260130404A1, “SWEETNESS AND TASTE IMPROVEMENT OF NON-SUCROSE SWEETENERS WITH D-SUGARS OR L-SUGARS” (The Coca-Cola Company, priority 2022, published 2026).
Where two headings read alike, the source gives them in different places.

Experiments:
[1] = tested on: panelists; assay: Sensory panel paired comparison of lemon-lime beverages with Reb M; format: in vivo; conditions: 1% in a lemon-lime matrix containing 475 ppm rebaudioside M
Method: (§1) The ingredients were dissolved in filtered water to constitute a syrup, then the final beverage was made by weighing the appropriate syrup amount and adding carbonated water using a ratio of 1-part syrup+5.4 parts carbonated water to target a carbonation of 3.8 volumes of CO2. Final beverages were filled in 300 ml glass bottles and served cold (4° C.). A sensory panel was provided with the D-glucose (@1%) containing beverage of Table 1 and the control shown therein. The beverages were evaluated blindly by six or seven panelists. Samples were coded and randomly presented to the panelists. Panelists were instructed to eat an unsalted cracker and rinse the mouth with water before and in between the samples. For each sample, panelists were instructed to taste, then write down their evaluation comments in paired comparison test between control and prototypes. Panelists ranked higher the sample that had higher sweet intensity, fast sweet onset, more sugar like mouthfeel, less sweet linger, less bitter and overall best tasting. […] Samples were coded and randomly presented to the panelists. Panelists were instructed to eat an unsalted cracker and rinse the mouth with water before and in between the samples. […]

[2] = tested on: panelists; assay: Sensory panel paired comparison of lemon-lime beverages with Siamenoside I; format: in vivo; conditions: 2% in a lemon-lime matrix containing 600 ppm Siamenoside I
Method: as §1, with “Table 4” for “Table 1”

[3] = tested on: human sense of taste; conditions: cited from earlier work
[4] = tested on: human sense of taste; conditions: cited from earlier work; remark: listed apart in the source
[5] = tested on: taste panelists; conditions: background statement; cited from earlier work
[6] = lowest known concentration perceivable as sweet, ppm equivalent of the mM value
[7] = lowest known concentration perceivable by the human sense of taste as sweet

Structure (SMILES) | taste modulation (sensory testing, FIG. 1 and 2) [1] | taste modulation (sensory testing, FIG. 3 and 4) [2] | sweetness recognition threshold concentration [3, 6] | sweetness recognition threshold concentration [3, 7] | detection threshold concentration ([4]; lowest known concentration perceivable by the human sense of taste) | detection threshold concentration ([4]; lowest known concentration perceivable, ppm equivalent of the mM value) | maximal sucrose equivalence [5]
O=C[C@H](O)[C@@H](O)[C@H](O)[C@H](O)CO [D-glucose] | effective taste modulator | effective taste modulator | about 7386 ppm | about 41±6 mM | about 13 mM | about 2342 ppm | 
O=C[C@@H](O)[C@H](O)[C@@H](O)[C@@H](O)CO [L-glucose] | effective taste modulator | effective taste modulator | about 5765 ppm | about 32±7 mM |  |  | 
C=C1C[C@@]23CC[C@H]4[C@@](C)(CCC[C@@]4(C)C(=O)O[C@@H]4O[C@H](CO)[C@@H](O)[C@H](O)[C@H]4O)[C@@H]2CC[C@]1(O[C@@H]1O[C@H](CO)[C@@H](O)[C@H](O[C@@H]2O[C@H](CO)[C@@H](O)[C@H](O)[C@H]2O)[C@H]1O[C@@H]1O[C@H](CO)[C@@H](O)[C@H](O)[C@H]1O)C3 [rebaudioside A] |  |  |  |  |  |  | ≤ 10%
C=C1C[C@@]23CC[C@H]4[C@@](C)(CCC[C@@]4(C)C(=O)O[C@@H]4O[C@H](CO)[C@@H](O)[C@H](O[C@@H]5O[C@H](CO)[C@@H](O)[C@H](O)[C@H]5O)[C@H]4O[C@@H]4O[C@H](CO)[C@@H](O)[C@H](O)[C@H]4O)[C@@H]2CC[C@]1(O[C@@H]1O[C@H](CO)[C@@H](O)[C@H](O[C@@H]2O[C@H](CO)[C@@H](O)[C@H](O)[C@H]2O)[C@H]1O[C@@H]1O[C@H](CO)[C@@H](O)[C@H](O)[C@H]1O)C3 [rebaudioside M] |  |  |  |  |  |  | greater than 10%
